Data taken from patent publication US20230085307A1, “PYRIDAZINONE COMPOUND AND HERBICIDE” (NISSAN CHEMICAL CORPORATION, priority 2019, published 2023).

Assays:
green foxtail [1] = assay: Test Example 4: herbicidal effect by soil treatment (Table 19, symbol G); assay type: in vivo, green foxtail (Setaria viridis); details: for G: green foxtail, herbicidal effect rating: AAH 320 g/ha
In short: (§1)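 Step 1: sow seeds in sterilized diluvial soil, cover ~1.5 cm. Step 2: spray diluted emulsion onto soil surface at predetermined rate. Step 3: greenhouse, 25–30° C, three weeks. Step 4: grade effect on each plant by earlier criteria.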

southern crabgrass [2] = assay: Test Example 5: herbicidal effect by foliage application, plastic box (Table 20, symbol F); assay type: in vivo, southern crabgrass (Digitaria ciliaris); details: foliage application, 320 g/ha, 3 weeks after application
In short: (§2)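 Foliar spray test: emulsion formulation diluted in water to a set application rate, sprayed onto 14-day-old plants raised in diluvial soil at 25° C to 30° C under glass. Both herbicidal effect and crop effect rated visually three weeks later.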

windgrass [3] = assay: Test Example 5: herbicidal effect by foliage application, plastic box (Table 20, symbol L); assay type: in vivo, windgrass (Apera spica-venti); details: foliage application, 320 g/ha, 3 weeks after application
In short: as §2

Italian ryegrass [4] = assay: Test Example 4: herbicidal effect by soil treatment (Table 19, symbol K); assay type: in vivo, Italian ryegrass (Lolium multiflorum); details: for K: Italian ryegrass, herbicidal effect rating: AAH 320 g/ha
In short: as §1

blackgrass [5] = assay: Test Example 5: herbicidal effect by foliage application, plastic box (Table 20, symbol J); assay type: in vivo, blackgrass (Alopecurus myosuroides); details: foliage application, 320 g/ha, 3 weeks after application
In short: as §2

chickweed = assay: Test Example 4: herbicidal effect by soil treatment (Table 19, symbol P); assay type: in vivo, common chickweed (Stellaria media); details: for P: chickweed, herbicidal effect rating: AAH 320 g/ha
In short: as §1

windgrass [6] = assay: Test Example 4: herbicidal effect by soil treatment (Table 19, symbol L); assay type: in vivo, windgrass (Apera spica-venti); details: for L: windgrass, herbicidal effect rating: AAH 320 g/ha
In short: as §1

wild oat [7] = assay: Test Example 4: herbicidal effect by soil treatment (Table 19, symbol I); assay type: in vivo, wild oat (Avena fatua); details: for I: wild oat, herbicidal effect rating: AAH 320 g/ha
In short: as §1

green foxtail [8] = assay: Test Example 5: herbicidal effect by foliage application, plastic box (Table 20, symbol G); assay type: in vivo, green foxtail (Setaria viridis); details: foliage application, 320 g/ha, 3 weeks after application
In short: as §2

barnyard grass [9] = assay: Test Example 4: herbicidal effect by soil treatment (Table 19, symbol H); assay type: in vivo, barnyard grass (Echinochloa crus-galli); details: for H: barnyard grass, herbicidal effect rating: AAH 320 g/ha
In short: as §1

lambsquarters [10] = assay: Test Example 4: herbicidal effect by soil treatment (Table 19, symbol O); assay type: in vivo, lambsquarters (Chenopodium album); details: for O: lambsquarters, herbicidal effect rating: AAH 320 g/ha
In short: as §1

Chinese sprangletop = assay: Test Example 3: herbicidal effect by foliage application, Wagner pot (Table 18, symbol D); assay type: in vivo, chinese sprangletop (Leptochloa chinensis); details: 320 g/ha
In short: (§3)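 Plants were sown in alluvial soil held under 0.1–0.5 cm standing water and grown 14 days in a greenhouse at 25–30 °C. An emulsifiable formulation, water-diluted to the set dose, was then sprayed onto the foliage, and effects were scored three weeks later using previously defined criteria.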

velvetleaf [11] = assay: Test Example 4: herbicidal effect by soil treatment (Table 19, symbol M); assay type: in vivo, velvetleaf (Abutilon theophrasti); details: for M: velvetleaf, herbicidal effect rating: AAH 320 g/ha
In short: as §1

barnyard grass [12] = assay: Test Example 3: herbicidal effect by foliage application, Wagner pot (Table 18, symbol H); assay type: in vivo, barnyard grass (Echinochloa crus-galli); details: 320 g/ha
In short: as §3

barnyard grass [13] = assay: Test Example 5: herbicidal effect by foliage application, plastic box (Table 20, symbol H); assay type: in vivo, barnyard grass (Echinochloa crus-galli); details: foliage application, 320 g/ha, 3 weeks after application
In short: as §2

blackgrass [14] = assay: Test Example 4: herbicidal effect by soil treatment (Table 19, symbol J); assay type: in vivo, blackgrass (Alopecurus myosuroides); details: for J: blackgrass, herbicidal effect rating: AAH 320 g/ha
In short: as §1

lambsquarters [15] = assay: Test Example 5: herbicidal effect by foliage application, plastic box (Table 20, symbol O); assay type: in vivo, lambsquarters (Chenopodium album); details: foliage application, 320 g/ha, 3 weeks after application
In short: as §2

persian speedwell [16] = assay: Test Example 4: herbicidal effect by soil treatment (Table 19, symbol R); assay type: in vivo, Persian speedwell (Veronica persica); details: for R: persian speedwell, herbicidal effect rating: AAH 320 g/ha
In short: as §1

redroot pigweed = assay: Test Example 4: herbicidal effect by soil treatment (Table 19, symbol N); assay type: in vivo, redroot pigweed (Amaranthus retroflexus); details: for N: redroot pigweed, herbicidal effect rating: AAH 320 g/ha
In short: as §1

velvetleaf [17] = assay: Test Example 5: herbicidal effect by foliage application, plastic box (Table 20, symbol M); assay type: in vivo, velvetleaf (Abutilon theophrasti); details: foliage application, 320 g/ha, 3 weeks after application
In short: as §2

Italian ryegrass [18] = assay: Test Example 5: herbicidal effect by foliage application, plastic box (Table 20, symbol K); assay type: in vivo, Italian ryegrass (Lolium multiflorum); details: foliage application, 320 g/ha, 3 weeks after application
In short: as §2

rice flat sedge = assay: Test Example 3: herbicidal effect by foliage application, Wagner pot (Table 18, symbol E); assay type: in vivo, rice flat sedge (Cyperus iria); details: 320 g/ha
In short: as §3

wild oat [19] = assay: Test Example 5: herbicidal effect by foliage application, plastic box (Table 20, symbol I); assay type: in vivo, wild oat (Avena fatua); details: foliage application, 320 g/ha, 3 weeks after application
In short: as §2

southern crabgrass [20] = assay: Test Example 4: herbicidal effect by soil treatment (Table 19, symbol F); assay type: in vivo, southern crabgrass (Digitaria ciliaris); details: for F: southern crabgrass, herbicidal effect rating: AAH 320 g/ha
In short: as §1

persian speedwell [21] = assay: Test Example 5: herbicidal effect by foliage application, plastic box (Table 20, symbol R); assay type: in vivo, Persian speedwell (Veronica persica); details: foliage application, 320 g/ha, 3 weeks after application
In short: as §2

SMILES | G: green foxtail, herbicidal effect rating (green foxtail [1]) | effect on southern crabgrass (F) (southern crabgrass [2]) | effect on windgrass (L) (windgrass [3]) | K: Italian ryegrass, herbicidal effect rating (Italian ryegrass [4]) | effect on blackgrass (J) (blackgrass [5]) | P: chickweed, herbicidal effect rating (chickweed) | L: windgrass, herbicidal effect rating (windgrass [6]) | I: wild oat, herbicidal effect rating (wild oat [7]) | effect on green foxtail (G) (green foxtail [8]) | H: barnyard grass, herbicidal effect rating (barnyard grass [9]) | O: lambsquarters, herbicidal effect rating (lambsquarters [10]) | herbicidal effect on D (Chinese sprangletop), rating 0-5 (Chinese sprangletop) | herbicidal effect on H (barnyard grass), rating 0-5 (barnyard grass [12]) | effect on barnyard grass (H) (barnyard grass [13]) | effect on lambsquarters (O) (lambsquarters [15]) | effect on velvetleaf (M) (velvetleaf [17]) | effect on Italian ryegrass (K) (Italian ryegrass [18]) | herbicidal effect on E (rice flat sedge), rating 0-5 (rice flat sedge) | effect on wild oat (I) (wild oat [19]) | effect on persian speedwell (R) (persian speedwell [21]) | further results
CCCC(=O)Oc1c(OC)nn(C)c(=O)c1-c1c(-c2cc3ccccc3s2)sc2ccccc12 [1-197] | 0 (Herbicidal rate of 5% or less (almost no effect)) | 0 (Herbicidal rate of 5% or less (almost no effect)) | 0 (Herbicidal rate of 5% or less (almost no effect)) | 0 (Herbicidal rate of 5% or less (almost no effect)) | 0 (Herbicidal rate of 5% or less (almost no effect)) | 5 (Herbicidal rate of 90% or more (almost completely withered)) | 0 (Herbicidal rate of 5% or less (almost no effect)) | 0 (Herbicidal rate of 5% or less (almost no effect)) | 1 (Herbicidal rate of 5% or more and less than 20%) | 0 (Herbicidal rate of 5% or less (almost no effect)) | 0 (Herbicidal rate of 5% or less (almost no effect)) | 2 (Herbicidal rate of 20% or more and less than 40%) | 4 (Herbicidal rate of 70% or more and less than 90%) | 0 (Herbicidal rate of 5% or less (almost no effect)) | 1 (Herbicidal rate of 5% or more and less than 20%) | 3 (Herbicidal rate of 40% or more and less than 70%) | 0 (Herbicidal rate of 5% or less (almost no effect)) | 4 (Herbicidal rate of 70% or more and less than 90%) | 0 (Herbicidal rate of 5% or less (almost no effect)) | 5 (Herbicidal rate of 90% or more (almost completely withered)) | M: velvetleaf, herbicidal effect rating (velvetleaf [11]): 0 (Herbicidal rate of 5% or less (almost no effect)); J: blackgrass, herbicidal effect rating (blackgrass [14]): 0 (Herbicidal rate of 5% or less (almost no effect)); R: persian speedwell, herbicidal effect rating (persian speedwell [16]): 5 (Herbicidal rate of 90% or more (almost completely withered)); N: redroot pigweed, herbicidal effect rating (redroot pigweed): 0 (Herbicidal rate of 5% or less (almost no effect)); F: southern crabgrass, herbicidal effect rating (southern crabgrass [20]): 0 (Herbicidal rate of 5% or less (almost no effect))
Cc1nn(C)c(=O)c(-c2c(-c3ccc(O)cc3)sc3ccccc23)c1O [1-200] | 0 (Herbicidal rate of 5% or less (almost no effect)) | 3 (Herbicidal rate of 40% or more and less than 70%) | 0 (Herbicidal rate of 5% or less (almost no effect)) | 0 (Herbicidal rate of 5% or less (almost no effect)) | 0 (Herbicidal rate of 5% or less (almost no effect)) | 1 (Herbicidal rate of 5% or more and less than 20%) | 0 (Herbicidal rate of 5% or less (almost no effect)) | 0 (Herbicidal rate of 5% or less (almost no effect)) | 3 (Herbicidal rate of 40% or more and less than 70%) | 0 (Herbicidal rate of 5% or less (almost no effect)) | 0 (Herbicidal rate of 5% or less (almost no effect)) | 3 (Herbicidal rate of 40% or more and less than 70%) | 4 (Herbicidal rate of 70% or more and less than 90%) | 4 (Herbicidal rate of 70% or more and less than 90%) | 4 (Herbicidal rate of 70% or more and less than 90%) | 5 (Herbicidal rate of 90% or more (almost completely withered)) | 1 (Herbicidal rate of 5% or more and less than 20%) | 3 (Herbicidal rate of 40% or more and less than 70%) | 0 (Herbicidal rate of 5% or less (almost no effect)) | 5 (Herbicidal rate of 90% or more (almost completely withered)) | M: velvetleaf, herbicidal effect rating (velvetleaf [11]): 0 (Herbicidal rate of 5% or less (almost no effect)); J: blackgrass, herbicidal effect rating (blackgrass [14]): 0 (Herbicidal rate of 5% or less (almost no effect)); R: persian speedwell, herbicidal effect rating (persian speedwell [16]): 3 (Herbicidal rate of 40% or more and less than 70%); N: redroot pigweed, herbicidal effect rating (redroot pigweed): 0 (Herbicidal rate of 5% or less (almost no effect)); F: southern crabgrass, herbicidal effect rating (southern crabgrass [20]): 0 (Herbicidal rate of 5% or less (almost no effect))
Cc1nn(C)c(=O)c(-c2c(-c3ccc(F)cc3)sc3ccc(F)cc23)c1OS(=O)(=O)N(C)C [2-009] | – | 5 (Herbicidal rate of 90% or more (almost completely withered)) | 0 (Herbicidal rate of 5% or less (almost no effect)) | – | 0 (Herbicidal rate of 5% or less (almost no effect)) | – | – | – | 5 (Herbicidal rate of 90% or more (almost completely withered)) | – | – | 3 (Herbicidal rate of 40% or more and less than 70%) | 5 (Herbicidal rate of 90% or more (almost completely withered)) | 4 (Herbicidal rate of 70% or more and less than 90%) | 3 (Herbicidal rate of 40% or more and less than 70%) | 4 (Herbicidal rate of 70% or more and less than 90%) | 4 (Herbicidal rate of 70% or more and less than 90%) | 4 (Herbicidal rate of 70% or more and less than 90%) | 0 (Herbicidal rate of 5% or less (almost no effect)) | 5 (Herbicidal rate of 90% or more (almost completely withered)) | herbicidal effect rating, G: green foxtail (green foxtail [1]; 320 g/ha): 3 (Herbicidal rate of 40% or more and less than 70%); herbicidal effect rating, K: Italian ryegrass (Italian ryegrass [4]; 320 g/ha): 4 (Herbicidal rate of 70% or more and less than 90%); herbicidal effect rating, P: chickweed (chickweed; 320 g/ha): 4 (Herbicidal rate of 70% or more and less than 90%); herbicidal effect rating, L: windgrass (windgrass [6]; 320 g/ha): 0 (Herbicidal rate of 5% or less (almost no effect)); herbicidal effect rating, I: wild oat (wild oat [7]; 320 g/ha): 0 (Herbicidal rate of 5% or less (almost no effect)); herbicidal effect rating, H: barnyard grass (barnyard grass [9]; 320 g/ha): 0 (Herbicidal rate of 5% or less (almost no effect)); herbicidal effect rating, O: lambsquarters (lambsquarters [10]; 320 g/ha): 3 (Herbicidal rate of 40% or more and less than 70%); herbicidal effect rating, M: velvetleaf (velvetleaf [11]; 320 g/ha): 2 (Herbicidal rate of 20% or more and less than 40%); herbicidal effect rating, J: blackgrass (blackgrass [14]; 320 g/ha): 0 (Herbicidal rate of 5% or less (almost no effect)); herbicidal effect rating, R: persian speedwell (persian speedwell [16]; 320 g/ha): 3 (Herbicidal rate of 40% or more and less than 70%); herbicidal effect rating, N: redroot pigweed (redroot pigweed; 320 g/ha): 5 (Herbicidal rate of 90% or more (almost completely withered)); herbicidal effect rating, F: southern crabgrass (southern crabgrass [20]; 320 g/ha): 1 (Herbicidal rate of 5% or more and less than 20%)
